According to paper PMC6389962 (Nature Communications, 2019):

How the values were obtained:
[1] = Pharmacokinetic evaluation in mice, i.v. (first study, peer review file Table 3); settings: in vivo, normal C57BL/6J mice, male, n = 3, 25 μg/mouse (~250 nmol/kg) intravenous, first PK study
Procedure: Our current understanding is that […]
ways (See Figure below for reviewing only).
(1 picture or pasted object on this page, not shown here)
PK mice Table 3 | Pharmacokinetic evaluation in mice by i.v.
*** (m L/m i n/ k g) (mL/kg) (m in)
Formulation: 2 mg/mL in PB S 1X.
An additional table has been prepared (Table 3) and the following text was added:
“A pharmacokinetic study was also conducted in mice to access the pharmacologic […]
The manuscript by Fremaux et al. describes the synthesis and biological evaluation of α-pept ide- […]
In the design of those analogues, four […]
peptide chemistry and medicinal chemistry.
The authors should, however, revise the manuscript for typographic and gramatical errors. As an example, the following sentence should be revised:
The manuscript was revised for typographic and grammatical errors and the sentence above was […]

mouse GLP-1 receptor = molecular target: T1, mouse GLP-1 receptor (Mus musculus, UniProt O35659)
T1 sequence (O35659 22-463): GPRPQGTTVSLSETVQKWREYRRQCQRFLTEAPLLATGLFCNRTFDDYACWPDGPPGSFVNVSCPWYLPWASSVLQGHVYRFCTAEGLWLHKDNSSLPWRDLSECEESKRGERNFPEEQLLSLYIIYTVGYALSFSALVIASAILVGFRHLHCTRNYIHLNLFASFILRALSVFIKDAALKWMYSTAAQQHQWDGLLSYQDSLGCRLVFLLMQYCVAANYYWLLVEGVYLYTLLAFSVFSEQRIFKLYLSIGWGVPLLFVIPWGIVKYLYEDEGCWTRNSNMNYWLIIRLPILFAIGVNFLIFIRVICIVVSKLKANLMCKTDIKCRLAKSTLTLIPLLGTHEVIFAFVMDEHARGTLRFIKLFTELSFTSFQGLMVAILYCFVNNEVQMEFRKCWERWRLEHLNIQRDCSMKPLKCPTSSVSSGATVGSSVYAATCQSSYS

in vitro = settings: mouse, plasma
How it was run: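 Oligomer at 5 µM final in mouse plasma/PBS pH 7.4 (1:1) at 37 °C, with a plasma-free control defining t = 0. Aliquots quenched in cold acetonitrile at 20 and 60 min; remaining oligomer quantified by LC-MS extracted-ion peak area.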

In the case of `CC[C@H](C)[C@H](NC(=O)[C@H](Cc1ccccc1)NC(=O)[C@H](CCC(=O)O)NC(=O)[C@H](CCCCN)NC(=O)[C@H](C)NC(=O)[C@H](C)NC(=O)[C@H](CCC(N)=O)NC(=O)CNC(=O)[C@H](CCC(=O)O)NC(=O)[C@H](CC(C)C)NC(=O)[C@H](Cc1ccc(O)cc1)NC(=O)[C@H](CO)NC(=O)[C@H](CO)NC(=O)[C@@H](NC(=O)[C@H](CC(=O)O)NC(=O)[C@H](CO)NC(=O)[C@@H](NC(=O)[C@H](Cc1ccccc1)NC(=O)[C@@H](NC(=O)CNC(=O)[C@H](CCC(=O)O)NC(=O)CNC(=O)[C@@H](N)Cc1c[nH]cn1)[C@@H](C)O)[C@@H](C)O)C(C)C)C(=O)N[C@@H](C)C(=O)N[C@@H](Cc1c[nH]c2ccccc12)C(=O)N[C@@H](CC(C)C)C(=O)N[C@H](C(=O)N[C@@H](CCCCN)C(=O)NCC(=O)N[C@@H](CCCNC(=N)N)C(=O)NCC(N)=O)C(C)C` [compound 1, GLP-1-G^2 (GG2)], the clearance ([1]; 2 mg/mL in PBS 1X) is reported as 448 mL/min/kg, the half-life [1] is reported as 7 min and the Vd ([1]; read-out: Vz) is reported as 4.48 L/kg. The “LogEC50 (best-fit value)” value (mouse GLP-1 receptor) was -9.62, the “Potency (%), percentage of potency compare to GLP-1-G^2” value (mouse GLP-1 receptor; cAMP production, from EC50) was 100% and the half-life (in vitro; pH 7.4) was 16 min. It also gave a remaining at 20 min (in vitro; pH 7.4, % remaining analogue) of 34.8% and a remaining at 1 h (in vitro; pH 7.4, % remaining analogue) of 23.9%.
